Patent US20250194594A1, “ATTRACTANT COTTON SEED BUG, OXYCARENUS Hyalinipennis, AND USES THEREOF” (The United States of America, as represented by the …, priority 2023, published 2025)
Entries after “also recorded” stand apart in the source; their conditions may differ.

Experiments:
[1] = test system: cotton seed bugs (CSBs); test: Pheromone function assigned from the behavioral responses and VOC profiles; type: in vivo, Oxycarenus hyalinipennis; settings: summary statement; compounds not tested singly in the bioassays
[2] = test system: cotton seed bug (CSB), Oxycarenus hyalinipennis; test: Field test, attractants formulated in rubber septa in a cotton field with low CSB population; type: in vivo; settings: cotton field where CSB population was low, vs control (no treatment), listed as 4-oxo-E2-8: ald
Excerpt: (§1) The mean number of O. hyalinippenis in different treatment traps (captures/week) in field trials were compared by one-way analysis of variance (ANOVA) followed by Ryan-Einot-Gabriel-Welsch F test (SPSS 10.0 for Windows) following D George and P Mallery (2002, “SPSS for Windows Step by Step: A Simple Guide and Reference,” 11.0 Update. 4th Edition, Allyn & Bacon; Boston, Massachusetts, USA). All statistical comparisons were considered for significance at α=0.05.
(§2) Different pheromones or mixtures of pheromones were tested for their ability to attract CSB in the field.
In a separate field test, a mixture of E2-octenal, 4-oxo-E2-octenal, and E2-octenyl acetate in a ratio of 1:2:7, as well as the single attractant component, 4-oxo-E2-8: ald, were tested. The compounds were formulated in rubber septa in a cotton field where the population of CSB was low. CSB formed the majority of insects caught in the traps. Trap specificity was much higher than in the test described above.

[3] = test system: cotton seed bug (CSB), Oxycarenus hyalinipennis; test: Field test, pheromones in plastic vials in a cotton field with high CSB population; type: in vivo; settings: counted after 1 hour, compared among treatment groups including control (no treatment)
Excerpt: as §1, §2
Field tests were conducted by adding one or more of the identified pheromones to plastic vials and placing the vials in a cotton field with high CSB population, followed by counting the CSB caught after one (1) hour.
A field test was conducted using E2-octenal, E2-octenyl acetate, and a mixture of E2-octenal and E2-octenyl acetate. The compounds were placed in plastic vials in a cotton field with a high population of CSB. Many other bugs were also captured in the traps (numbers were not included).

[4] = cited from earlier work
[5] = cited from earlier work; remark: listed apart in the source

Compound | pheromone function [1] | other results
C=C/C(C)=C/C/C=C(/C)CCC=C(C)C [(Z, E)-α-Farnesene] | performed as alarm (repellent) pheromones | 
CCCCCCC/C=C/C=O (single isomer, unassigned) [(E)-2-Decenal] | performed as oviposition pheromones | 
CCCCC(=O)/C=C/C=O [4-Oxo-(E)-2-octenal] |  | CSB trapped compared with control [2]: trapped significantly more CSB than control; also recorded: attract CSB
CCC(=O)/C=C/C=O [4-Oxo-(E)-2-hexenal] | performed as CSB attraction pheromones | 
CC(C)=CCC[C@]1(C)[C@H]2CC=C(C)[C@@H]1C2 [(E)-α-Bergamotene] | performed as alarm (repellent) pheromones | 
CCCCC/C=C/C=O [(E)-2-Octenal] | performed as CSB attraction pheromones; also recorded: performed as oviposition pheromones | number of CSB caught in the traps [3]: not significantly different; solubility (in water) [4]: practically insoluble; basicity (based on its pKa) [5]: extremely weak basic (essentially neutral)
CC1=CCC2CC1C2(C)C (stereo not drawn) [α-Pinene, 2,6,6-Trimethylbicyclo[3.1.1]hept-2-ene] | performed as CSB attraction pheromones | 
CCC/C=C/COC(C)=O [(E)-2-Hexenyl acetate, (E)-2-hexen-1-yl acetate] | performed as CSB attraction pheromones | 
CCCCC/C=C/COC(C)=O [(E)-2-Octenyl acetate] | performed as CSB attraction pheromones; also recorded: performed as oviposition pheromones | number of CSB caught in the traps [3]: not significantly different
CCC/C=C/C=O [(E)-2-Hexenal] | performed as CSB attraction pheromones | 
